The text below walks through data of patent publication US7718170B2, “Alkaline phosphatase compositions to reduce skin cancer” (Essential Skincare, LLC, priority 2006, dated 2010).

Data set [1] concerns B16 mouse melanoma. In words: B16 mouse melanoma tumor growth (tumor volume by calipers). In kind it is in vivo. Conditions: for Tumor volumes; Day 8 after tumor transplantation: local cream 150 mg per application on days 8, 11, 13, 15, 18, 20, day 8 = start, mean of 5 animals. From the text: The B16 mouse melanoma tumors were developed in first generation hybrid BDF1 (C57 B1 female×DBA/2 male) adult female mice kept at specified pathogen free (SPF) hygienic level. These mice have the complete immune system. The human H-168 melanoma tumors were developed in the homozygous line of C.B.-171 cr scid/scid mice (with severely compromised immune deficiency) which is an inbred mutant strain. In each case, tumor tissue fragments of about 0.1-cm^3 were surgically implanted subcutaneously into the intrascapular region to develop the tumors. Each tumor fragment contained 1-1.5×10^6 cells. The animals were kept in macrolon cages on ventilated rack at 22-24° C. (50-60% humidity) with lighting regimen of 12/12 h light/dark. The animals had free access to tap water and were fed with sterilized standard diet (Charles River VRF1, Germany) ad libitum. The animals were taken care of according to the “Guiding Principle for the care and use of Animals” based upon the Helsinki declaration and they were approved by the local ethical committee.
The mice bearing the rapidly growing B16 melanoma tumors were used after 8-11 days of tumor transplantation, while mice bearing the slower growing H-168 melanoma were used after 17 days of transplantation. In either case, when the tumor-bearing mice were used, the size of the tumors was in the 0.3-0.6 cm^3 range; animals were selected so that in the same treatment group the difference in tumor size was no greater than 0.1 cm^3 PALP, TF, or AT were used topically in a cream alone or in combination; in each case, 150-mg cream was applied on the tumor and the vicinity of tumor area (with about 0.3-0.5 cm margin). The tumor volume was determined by using calipers; this technique is well known to one having ordinary skill in the art. Tumor volume was calculated according to the generally accepted formula: V=a^2×b×π/6, where “a” and “b” mean the shortest and longest diameter, respectively, of the measured tumor.
The aggressive B16 mouse melanoma model was developed as described under Example 3. On day 11 after transplantation of tumor cells, the animals were either remained untreated (Group 1) or were treated with 15 mg/kg highly purified PALP via subcutaneous administration (Group 2). In Group 3, the tumors were treated locally with 150-mg of cream containing 4 mg commercial PALP in 1 g of Vaselinum cholesteratum. In Group 4, the animals were treated simultaneously locally with commercial PALP containing cream and via subcutaneous injection with highly purified PALP. Each treatment was performed once daily for seven consecutive days (i.e., treatments were terminated on day 18). Locally administered PALP preparation, and to a somewhat smaller extent injected purified PALP, inhibited the growth of B16 melanoma. The inhibitory effects remained significant even on day 23, 5 days after the last treatment. When PALP preparations were simultaneously administered via both routes, the combined effects were greater than the individual effects. […] Alternatively, optimal effects could require the presence of all 3 proteins. Experiments presented later confirm that the inhibitory effects of purified PALP on melanoma growth are greater in the simultaneous presence of TF and AT.
The B16 mouse melanoma model was developed as described under Example 3. On day 8 after transplantation of tumor cells, the animals either remained untreated (Group 1) or in other animal groups the tumors were treated locally with creams (150 mg per application) containing active components as follows: Group 2, 0.4 mg of purified PALP per 1-g Vaseline; Group 3, 0.5 mg of purified partially iron-saturated TF per 1-g Vaseline; Group 4, 0.4 mg of PALP+0.5 mg TF per 1-g Vaseline; Group 5, 1.2 mg of purified AT per 1-g Vaseline; Group 6, 0.4 mg of PALP+0.5 mg TF+1.2 mg of purified AT per 1-g Vaseline; and Group 7, Vaselinum cholesteratum alone. Each treatment was performed once daily on days 8, 11, 13, 15, 18 and 20. […]

Data set [2] concerns B16 mouse melanoma. The description is as above. In kind it is in vivo. Conditions: subcutaneous injection.
The test system of data set [3] is B16 melanoma. As to the kind of experiment: Lung metastasis of B16 melanoma (macroscopic lung colonies). It counts as in vivo, mouse. To be noted: treatments from day 11, daily, counted 21 days after starting the treatments, 7 animals, parentheses = smallest and highest numbers in the group. The procedure:
B16 melanoma cells are highly metastatic that are known to preferably form metastatic colonies in the lung. The goal of this experiment was to determine if any of the components present in commercial PALP or the mode of application affect the metastatic process.
The B16 melanoma model described under Example 3 was used. The treatments of mice bearing the rapidly growing B16 melanoma were started 11 days after tumor transplantation; additional treatments were performed on each day for six consecutive days. In each experimental group seven animals were used. In the first group, animal tumors were treated locally with 200 mg Vaseline (control group). In the second group, animal tumors were locally treated with 200 mg Vaseline cream containing 4 mg commercial PALP per 1-g Vaseline. In the third group, animals were subcutaneously injected commercial PALP (1.5 mg per animal or 60 mg per kg). In the fourth group, animals were treated with commercial PALP both locally and subcutaneously. In the fifth group, animals were subcutaneously injected highly purified PALP (0.35 mg per animal or 14 mg per 1 kg). In the sixth group, animals were subcutaneously injected partially iron-saturated human TF (0.4 mg per animal or 16 mg per 1 kg). In the seventh group, animal tumors were locally treated with 200 mg Vaseline cream containing 1.0 mg human TF per 1 g Vaseline. In the last group, the tumors were untreated during the entire period of experiment. The macroscopic colonies were counted in the lung (7 animals in each group) 21 days after starting the treatments. The data are presented in TABLE 5; numbers in the parentheses indicate the smallest and highest numbers of metastatic lung colonies in the same group.

The subject of data set [4] is fibroblast. In words: Fibroblast proliferation in vitro after pre-heating of TF. Conditions: pre-heating at up to 75° C. for 30 min. In kind it is cell-based. The procedure:
The stimulatory effects of TF on fibroblast proliferation in vitro are not altered by pre-heating it at up to 75° C. for 30 min. Thus, pre-heating of TF-containing compositions to enhance the effects of other components, such as PALP and AT will be unlikely to alter other effects of TF such as inhibition of melanoma growth.

Data set [5] is described as follows: Organ pathology in mice after repeated injection. In kind it is in vivo. To be noted: 16 mg/kg injected 15-times over a 3 weeks period.
[6] abbreviates: subcutaneous injection, CCDTHT 4.6 mg/kg once daily day 11-22, mean of 5 mice.
The mark [7] stands for this setting: local cream 150 mg per application on days 8, 11, 13, 15, 18, 20, mean of 5 animals.
Setting [8] is: BDF1 mice, 5 days after the last treatment, mean of 7 animals.
The mark [9] stands for this setting: BDF1 mice, day 11 = start of treatment, once daily for seven consecutive days, mean of 7 animals.
Where [10] appears, read: BDF1 mice, treated once daily from day 11 for seven days, mean of 7 animals.
[11] abbreviates: BDF1 mice, treated once daily from day 11 for seven days, treatments terminated on day 18, mean of 7 animals.
Where [12] appears, read: BDF1 mice, treatments terminated on day 18, mean of 7 animals.

Turning to `CC[N+](C)(CC)CCOCc1ccc2sc3ccccc3c(=O)c2c1.[I-]` [CCDTHT, N,N-diethyl-N-methyl-2-[(9-oxo-9H-thioxanthen-2-yl)methoxy]-ethanaminium iodide], in data set [1] (setting [6]), the “Tumor volumes; Day 14 after tumor transplantation” value was 1.20 cm^3, the “Tumor volumes; Day 16 after tumor transplantation” value amounted to 1.40 cm^3, the “Tumor volumes; Day 18 after tumor transplantation” value worked out at 1.90 cm^3 and the “Tumor volumes; Day 23 after tumor transplantation” value is reported as 3.00 cm^3. The “Tumor volumes; Day 11 after tumor transplantation” value in data set [2] (CCDTHT 4.6 mg/kg once daily day 11-22, day 11 = start, mean of 5 mice) came to 0.83 cm^3. In data set [2] (CCDTHT 4.6 mg/kg once daily day 11-22, mean of 5 mice), the “Tumor volumes; Day 21 after tumor transplantation” value amounted to 2.60 cm^3.

For “AT: human α1-antitrypsin, essentially pure, purified from commercial PALP preparation”, in data set [1], the “Tumor volumes; Day 8 after tumor transplantation” value was determined as 0.42 cm^3. Besides, in data set [1] (setting [7]), the “Tumor volumes; Day 11 after tumor transplantation” value was found to be 0.83 cm^3, the “Tumor volumes; Day 13 after tumor transplantation” value is 1.60 cm^3, the “Tumor volumes; Day 15 after tumor transplantation” value is 2.55 cm^3 and the “Tumor volumes; Day 18 after tumor transplantation” value was 3.48 cm^3. For the same molecule, the “Tumor volumes; Day 20 after tumor transplantation” value in data set [1] (setting [7]) is recorded as 4.80 cm^3.

On to “TF: human transferrin, partially iron-saturated, Sigma-Aldrich T 3309”, for which the “Tumor volumes; Day 23 after tumor transplantation” value in data set [1] (setting [8]) is 3.88 cm^3. The “Tumor volumes; Day 11 after tumor transplantation” value in data set [1] (setting [9]) is reported as 0.71 cm^3. In addition, in data set [1] (setting [10]), the “Tumor volumes; Day 14 after tumor transplantation” value was 1.00 cm^3 and the “Tumor volumes; Day 16 after tumor transplantation” value was found to be 1.13 cm^3. Also, the “Tumor volumes; Day 18 after tumor transplantation” value in data set [1] (setting [11]) was determined as 2.00 cm^3. The “Tumor volumes; Day 21 after tumor transplantation” value in data set [1] (setting [12]) was 3.12 cm^3. In data set [1], the “Tumor volumes; Day 8 after tumor transplantation” value is given as 0.34 cm^3. For the same molecule, in data set [1] (setting [7]), the “Tumor volumes; Day 11 after tumor transplantation” value is recorded as 0.79 cm^3, the “Tumor volumes; Day 13 after tumor transplantation” value worked out at 1.38 cm^3, the “Tumor volumes; Day 15 after tumor transplantation” value was found to be 2.19 cm^3 and the “Tumor volumes; Day 18 after tumor transplantation” value is given as 3.07 cm^3. In data set [1] (setting [7]), the “Tumor volumes; Day 20 after tumor transplantation” value is 3.83 cm^3. Further, the “Number of lung colonies per lung*” value in data set [3] is “doubling”. Moreover, the “Number of lung colonies per lung*” value in data set [3] (listed as TF, local applications) is given as 17 (10-21). For the same molecule, the “Number of lung colonies per lung*” value in data set [3] (listed as TF, subcutaneous applications) is given as 38 (29-44). Also, the “Stimulatory effects on fibroblast proliferation in vitro after pre-heating” value in data set [4] was “not altered”.

B1: Purified PALP: human placental alkaline phosphatase purified to homogeneity from commercial Sigma-Aldrich PALP; it is 'PALP' in Table 2, b31 and b104 (protein, UniProt P05187 23-506, looked up)
Alkaline phosphatase, …: IIPVEEENPDFWNREAAEALGAAKKLQPAQTAAKNLIIFLGDGMGVSTVTAARILKGQKKDKLGPEIPLAMDRFPYVALSKTYNVDKHVPDSGATATAYLCGVKGNFQTIGLSAAARFNQCNTTRGNEVISVMNRAKKAGKSVGVVTTTRVQHASPAGTYAHTVNRNWYSDADVPASARQEGCQDIATQLISNMDIDVILGGGRKYMFRMGTPDPEYPDDYSQGGTRLDGKNLVQEWLAKRQGARYVWNRTELMQASLDPSVTHLMGLFEPGDMKYEIHRDSTLDPSLMEMTEAALRLLSRNPRGFFLFVEGGRIDHGHHESRAYRALTETIMFDDAIERAGQLTSEEDTLSLVTADHSHVFSFGGYPLRGSSIFGLAPGKARDRKAYTVLLYGNGPGYVLKDGARPDVTESESGSPEYRQQSAVPLDEETHAGEDVAVFARGPQAHLVHGVQEQTFIAHVMAFAACLEPYTACDLAPPAGTTD
In the case of B1, in data set [1] (setting [8]), the “Tumor volumes; Day 23 after tumor transplantation” value is listed as 3.63 cm^3. For the same molecule, in data set [1] (setting [9]), the “Tumor volumes; Day 11 after tumor transplantation” value came out at 0.75 cm^3. In addition, in data set [1] (setting [10]), the “Tumor volumes; Day 14 after tumor transplantation” value was determined as 1.16 cm^3 and the “Tumor volumes; Day 16 after tumor transplantation” value is listed as 1.55 cm^3. Besides, in data set [1] (setting [11]), the “Tumor volumes; Day 18 after tumor transplantation” value was 2.13 cm^3. In data set [1] (setting [12]), the “Tumor volumes; Day 21 after tumor transplantation” value is given as 3.47 cm^3. In data set [3], the “Number of lung colonies per lung*” value was 16 (9-18). The “Pathological effects (cell death or immune cell infiltration) in liver, lung, heart, blood, kidney, muscle, brain, spleen, intestine” value in data set [5] is recorded as “has not caused any significant pathological effects”.
